Measurements from patent publication US9957253B2, “Triaminopyrimidine compounds useful for preventing or treating malaria” (MMV MEDICINES FOR MALARIA VENTURE, priority 2014, dated 2018).
Structures can show the parent of a compound that is named as a salt. Where two headings read alike, the source gives them in different places.

Assays:
[1] = Plasma protein binding assay (equilibrium dialysis), human; format: in vitro ADME
Description: (§1) Plasma Protein Binding Assay
(§2) Protein binding is measured using the equilibrium dialysis technique. Compound is added to 10% plasma giving a concentration of 20 μM and dialysed with isotonic buffer for 18 hours at 37° C. The plasma and buffer solutions are analysed using generic LCUVMS and the first apparent binding constant for the compound derived. The binding constant is then used to determine the % free in 100% plasma.

[2] = tested on: hepatocytes; assay: Metabolic stability assay (hepatocyte Clint), rat; format: in vitro ADME; conditions: 1 μM compound
Description: Metabolic Stability Assay (Rat/Human Hepatocyte Clint)
Viability of cryopreserved hepatocytes was determined using trypan blue and the cell concentration was adjusted to 10^6 cells per mL with Leibovitz L-15 Buffer. 1 μM compound (in Acetonitrile; 0.01% DMSO) was incubated with 500 μL of hepatocytes (1 million cells per mL) in a NUNC plate. Reaction was stopped at different time points (0, 5, 15, 30, 60, 90 and 120 min) by addition of 3 volumes of chilled acetonitrile to 100 μL of reaction mixture and centrifuged at 4° C. for 15 min. Supernatants were analyzed using LC-MS/MS for substrate depletion.

[3] = biological target: CYP3A4 (Homo sapiens, UniProt P08684); assay: Time dependent CYP inhibition assay, CYP 3A4; format: in vitro ADME
[4] = biological target: T1, human CYP 1A2 (Homo sapiens, UniProt P05177); assay: CYP inhibition assay, CYP 1A2; format: in vitro ADME
T1 sequence (P05177 1-516): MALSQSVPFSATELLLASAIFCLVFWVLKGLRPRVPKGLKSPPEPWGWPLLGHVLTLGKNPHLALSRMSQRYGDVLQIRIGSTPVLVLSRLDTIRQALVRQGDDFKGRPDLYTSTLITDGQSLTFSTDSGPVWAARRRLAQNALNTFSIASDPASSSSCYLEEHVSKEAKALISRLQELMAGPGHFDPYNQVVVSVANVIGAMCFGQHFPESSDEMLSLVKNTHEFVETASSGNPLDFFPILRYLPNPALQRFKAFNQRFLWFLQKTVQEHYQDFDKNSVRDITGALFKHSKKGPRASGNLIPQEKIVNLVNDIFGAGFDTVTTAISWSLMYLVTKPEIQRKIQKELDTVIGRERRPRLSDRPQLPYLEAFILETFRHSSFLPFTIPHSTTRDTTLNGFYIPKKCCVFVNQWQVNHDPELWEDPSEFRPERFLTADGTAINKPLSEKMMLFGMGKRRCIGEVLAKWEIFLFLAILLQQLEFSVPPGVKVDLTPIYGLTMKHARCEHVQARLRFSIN
Description: This study was conducted using specific substrates for 5 major human CYP isozymes. These substrates were used as a cocktail (phenacetin, diclofenac, S-mephenytoin, bufuralol and midazolam which are predominantly metabolised by CYP 1A2, 2C9, 2C19, 2D6 and 3A4/5, respectively) at concentrations equivalent to their respective Km values. LC-MS-MS (MRM mode) was used to follow the formation of the CYP specific metabolites. A decrease in the formation of the metabolites in peak area to vehicle control was used to calculate the IC50 value. […] Test compound was used at 6 different concentrations ([…]) to estimate IC50.
The incubation was carried out in 96 deep well plates. Mixture of 180 μL of 20 mg/mL HLM and 90 μL of substrate cocktail solution was added to 15840 μL of phosphate buffer and 179 μL of this mixture was mixed with 1 μL of the test compound, inhibitor cocktail solution or vehicle in each well. The final concentration of DMSO:ACN in the assay mix was 0.3:0.7% v/v. The incubation plate was placed into the water bath and pre-warmed at 37° C. for 5 min before the reactions were started by the addition of 20 μL of 10 mmol/L NADPH solution in phosphate buffer. After the addition of NADPH, the incubation plate was incubated at 37° C. for a further 5 min. The reaction was quenched by the addition of 1 volume (200 μL) of cold ACN containing 3% formic acid and 40 nmol/L verapamil. The plates were kept on ice for 20 min and then centrifuged at 4000 rpm for 30 min to precipitate protein. The supernatant 180 μL was transferred to the analysis plate for LC/MS/MS analysis.

[5] = tested on: chloroquine sensitive NF54 strain of P. falciparum; assay: In vitro antiplasmodial activity (SYBR I), NF54 strain; format: cell-based, Plasmodium falciparum; conditions: Plasmodium falciparum
Description: Measuring In Vitro Antiplasmodial Activity
The test samples were tested in duplicate on two separate occasions against chloroquine sensitive NF54 (MRA-1000, MR4, ATCC, Manassas, Va.) and chloroquine-resistant K1 strains of P. falciparum. A modified method of Trager and Jensen was employed to maintain continuous in vitro cultures of asexual blood stages of P. falciparum (Trageret al., 1976, Science, 193, 673-675). Quantitative assessment of antiplasmodial activity in vitro was determined using the SYBR I method as described earlier (Johnson et al., 2007, Antimicrob. Agents Chemother., 51, 1926-1933).
The percent inhibition with respect to the drug-free control was plotted against the logarithm of drug concentration. The growth inhibition curves were fitted by nonlinear regression using the sigmoidal dose-response (variable slope) formula to yield the concentration-response curves. […] Chloroquine diphosphate (CQ) (Sigma), artesunate (Sigma), and pyrimethamine were used as reference drugs in all experiments.

[6] = Prediction of hepatic blood clearance (well stirred model), dog
[7] = Plasma protein binding assay (equilibrium dialysis), dog; format: in vitro ADME
Description: as §1, §2

[8] = Blood:Plasma (BP) ratio, dog; format: in vitro ADME; conditions: 10 μM, 37° C., 30 min
Description: Determination of Blood:Plasma (BP) Ratio
The incubation plate and the dog blood/plasma was preheated at 37° C. for 10 minutes. 2 μL of working solution of each compound was added to 398 μL of dog reference plasma or blood to achieve a final concentration of 10 μM. Plates were incubated at 37° C. with shaking for 30 min. After incubation, the blood samples are spun for 10 min. at 4,000 rpm (37° C.) and the plasma samples were stored at 37° C. Aliquots (100 μL) of plasma separated from centrifuged whole blood samples and reference plasma samples were transferred into 96-well plates. 400 μL of cold acetonitrile was added to precipitate protein and release compound. After vortexing for 10 min., plates were centrifuged for 30 min. at 4,000 rpm. 250 μL of the supernatant was transferred to new 96-well plates and centrifuged again at 4,000 rpm for 30 min. 100 μL of the supernatant was used for analysis by LC-MS/MS.

[9] = tested on: hepatocytes; assay: Metabolic stability assay (hepatocyte Clint), dog; format: in vitro ADME; conditions: 1 μM compound
[10] = tested on: parasite; assay: In vitro parasite reduction ratio (PRR) assay; format: cell-based; conditions: after 48 hours of exposure
Description: When tested in an in vitro parasite reduction ratio (PRR) assay (Le Manach, et al., 2013, Malar J., […], 424-430), Example 13 produced a >4-log kill after 48 hours of exposure, an effect similar to chloroquine in the same assay.

[11] = human liver microsomes, substrate cocktail, read-out: IC50 CYP 1A2
[12] = NF54 strain, chloroquine sensitive, read-out: Pf IC50—NF54

CYP3A4, sequence (P08684 whole entry): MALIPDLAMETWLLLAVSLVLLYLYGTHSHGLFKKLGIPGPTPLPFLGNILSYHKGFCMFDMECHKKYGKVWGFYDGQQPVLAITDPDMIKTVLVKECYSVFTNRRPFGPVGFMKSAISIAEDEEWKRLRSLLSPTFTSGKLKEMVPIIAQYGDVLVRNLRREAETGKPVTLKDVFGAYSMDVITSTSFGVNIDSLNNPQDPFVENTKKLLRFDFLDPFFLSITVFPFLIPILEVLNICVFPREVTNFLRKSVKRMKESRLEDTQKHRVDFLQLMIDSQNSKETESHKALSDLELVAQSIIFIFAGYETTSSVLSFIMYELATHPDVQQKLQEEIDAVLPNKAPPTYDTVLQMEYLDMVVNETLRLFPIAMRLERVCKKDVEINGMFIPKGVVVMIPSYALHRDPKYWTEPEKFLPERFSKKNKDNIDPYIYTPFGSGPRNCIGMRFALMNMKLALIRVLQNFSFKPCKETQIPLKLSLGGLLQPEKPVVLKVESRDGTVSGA

| Compound | Fup [1] | Hep. Clint [2] [μl/min/1E6] | IC50 [3] [µM] | IC50 [4] [µM] | IC50 ([5]; NF54, read-out: Pf IC50—NF54) [µM] | Predicted CLh blood [6] [mL/min/kg] | Fup [7] | IC50 [4, 11] [µM] | BP ratio [8] | IC50 [5, 12] [µM] | Hep. Clint [9] [μl/min/1E6] | log kill in parasite reduction ratio (PRR) assay [10] [log] |
| --- | --- | --- | --- | --- | --- | --- | --- | --- | --- | --- | --- | --- |
| CCc1cc(Nc2ncc(N3CCN[C@H](C)C3)c(Nc3cc(C)n(C)n3)n2)nc(C)c1F [Example 7, (R)—N4-(1,5-dimethyl-1H-pyrazol-3-yl)-N2-(4-ethyl-5-fluoro-6-methylpyridin-2-yl)-5-(3-methylpiperazin-1-yl)pyrimidine-2,4-diamine dihydrochloride] | 0.03 | 5.6 | > 56 | > 30 | 0.027 |  |  |  |  |  |  |  |
| Cc1nc(Nc2ncc(N3CCN[C@H](C)C3)c(Nc3cnn(C)n3)n2)cc(C2CC2)c1Cl [Example 10, (R)—N2-(5-chloro-4-cyclopropyl-6-methylpyridin-2-yl)-N4-(2-methyl-2H-1,2,3-triazol-4-yl)-5-(3-methylpiperazin-1-yl)pyrimidine-2,4-diamine dihydochloride] | 0.04 | 8.3 | > 56 |  |  | 12.70 | 0.04 | > 30 | 1.7 | 0.013 | 5.1 |  |
| Cc1nc(Nc2ncc(N3CCN(C)[C@H](C)C3)c(Nc3cc(C)n(C)n3)n2)cc(C2CC2)c1F [Example 13, (R)—N2-(4-cyclopropyl-5-fluoro-6-methylpyridin-2-yl)-N4-(1,5-dimethyl-1H-pyrazol-3-yl)-5-(3,4-dimethylpiperazin-1-yl)pyrimidine-2,4-diamine] | 0.03 | 11.3 | > 56 |  |  | 20.80 | 0.04 | > 30 | 1.35 | 0.009 | 9.3 | > 4 |
